Reference: EP4737445A1, “NOVEL SATURATED HETEROCYCLE-SUBSTITUTED HETEROARYL-CARBONOHYDRAZONOYL DICYANIDE COMPOUND AND USE THEREOF” (Korea Institute of Science and Technology, priority 2023, dated 2025)

Columns and labels:
[1] = Liver microsomal stability, human; assay type: in vitro ADME; details: 1 µM compound; 0.5 mg/mL microsomes; NADPH; 30 minutes at 37°C
Protocol: (§1) Liver microsomal stability by the compounds prepared according to Examples 1 to 46 was confirmed. Specifically, four types of liver microsomes (human, dog, rat, and mouse each at 0.5 mg/mL), 0.1 M phosphate buffer solution (pH 7.4), and the compounds at 1 µM concentration were added and pre-incubated at 37°C for 5 minutes, and then NADPH generation system solution was added and incubated at 37°C for an additional 30 minutes. Thereafter, an acetonitrile solution containing an internal standard (chloropropamide) was added to terminate the reaction, and after centrifugation for 5 minutes (14,000 rpm, 4°C), the supernatant was injected into an LC-MS/MS system to analyze the substrate drug, thereby evaluating the metabolic stability of 8 compounds.
(§2) The amount of remaining substrate through the reaction was analyzed using a Shimadzu Nexera XR system and TSQ vantage (Thermo). A Kinetex XB-C18 (2.1 × 100 mm, 2.6 µm, particle size; Phenomenex, USA) was used as the HPLC column, and (A) distilled water containing 0.1% formic acid and (B) acetonitrile containing 0.1% formic acid were used as mobile phases. Analyst software (version 1.6.3) and Xcalibur (version 1.6.1) were used for data analysis. The calculated results are shown in Table 5 below: Liver microsomal stability data of novel compounds from […] (human, rat, and mouse).

[2] = Liver microsomal stability, rat; assay type: in vitro ADME; details: 1 µM compound; 0.5 mg/mL microsomes; NADPH; 30 minutes at 37°C
Protocol: as §1, §2

Tau-BiFC cells = assay: Cell viability (stained nuclei count) in Tau-BiFC cells; assay type: cell-based; details: @10 µM; Tau-BiFC cell line; Forskolin-only group = 100%
Protocol: (§3) To screen for new tau aggregation inhibitors, a Tau-BiFC cell model that facilitates observation of tau oligomer formation in living cells was used. Tau-BiFC cells were dispensed into a 384-well plate, and the next day, the compounds prepared according to Examples 1 to 46 were treated at concentrations of 1, 3, and 10 µM, respectively, together with Forskolin (treatment concentration 30 µM), which is a compound that induces tau aggregation by activating the tau phosphorylation enzyme PKA. After 48 hours, nuclei within cells were stained using Hoechst (treatment concentration 2 µg/mL), and BiFC fluorescence intensity was automatically quantified using Operetta (Perkin Elmer) to count the stained nuclei in each well from the entire plate. The group treated only with Forskolin, which induces tau aggregation, was set as the reference point with 100% tau aggregation state, and the effect was confirmed by the formula "BiFC fluorescence intensity by the compounds synthesized according to the Examples of the disclosure/(fluorescence intensity of the control group treated only with Forskolin that induces tau aggregation - fluorescence intensity of the untreated control group) × 100". In addition, the degree of cytotoxicity induced by the newly synthesized compounds was also calculated using the formula "(number of stained nuclei in the compound-treated group/number of stained nuclei in the Forskolin-treated group) × 100", with the group treated only with Forskolin as the reference point at 100% viability. From the treatment results, substances that inhibit intracellular tau aggregation were identified through screening from a series of candidates based on the criteria of 70% or more tau aggregation inhibition and 100% cell viability at a compound treatment concentration of 10 µM.
(§4) To confirm the tau aggregation inhibitory effect according to the concentration of the compounds screened in Experimental Example 1, the screened compounds were treated to Tau-BiFC cells at concentrations of 0.03, 0.1, 0.3, 1, 3, 10, and 30 µM, respectively, together with Forskolin (treatment concentration 30 µM), which is a tau aggregation-inducing substance. After 48 hours, cell images were examined to analyze the tau aggregation reaction and degree of cytotoxicity. The IC50 and toxicity of the compounds were analyzed by nonlinear regression analysis using Prism software (GraphPad). The calculated results for representative compounds are shown in Table 3 below: Tau aggregation inhibitory effect and cell viability of novel compounds.

[3] = Liver microsomal stability, mouse; assay type: in vitro ADME; details: 1 µM compound; 0.5 mg/mL microsomes; NADPH; 30 minutes at 37°C
Protocol: as §1, §2

Tau = biological target: T1, Tau (Homo sapiens, UniProt P10636); assay: Tau aggregation inhibition in Tau-BiFC cell model (Forskolin-induced); assay type: cell-based
T1 construct: BiFC fluorescent-protein fragments (two complementary halves on two tau copies); expressed in transfected cells
T1 sequence (P10636 1-441 isoform P10636-8): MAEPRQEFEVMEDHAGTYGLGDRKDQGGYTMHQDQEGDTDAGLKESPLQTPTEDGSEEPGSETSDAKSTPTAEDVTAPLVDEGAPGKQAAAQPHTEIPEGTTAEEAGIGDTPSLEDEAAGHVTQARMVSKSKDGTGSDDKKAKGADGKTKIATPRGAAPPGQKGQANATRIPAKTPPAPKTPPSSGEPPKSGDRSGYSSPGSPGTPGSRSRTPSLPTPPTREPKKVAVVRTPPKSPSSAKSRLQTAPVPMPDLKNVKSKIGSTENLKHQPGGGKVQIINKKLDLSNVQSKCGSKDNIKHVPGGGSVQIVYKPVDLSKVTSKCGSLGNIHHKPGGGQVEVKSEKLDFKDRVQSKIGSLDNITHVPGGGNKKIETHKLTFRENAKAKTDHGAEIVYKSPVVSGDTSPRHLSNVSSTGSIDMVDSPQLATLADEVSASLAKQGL
Protocol: as §3, §4

TDP-43 protein = biological target: T2, TDP-43 protein (Homo sapiens, UniProt Q13148); assay: TDP-43 aggregation inhibition in TDP-43-BiFC cell model (Forskolin-induced); assay type: cell-based; details: read-out: TDP-43 protein aggregation inhibitory effect: Aggregation inhibitory effect (%) (@3 uM)
T2 construct: BiFC fluorescent-protein fragments (two complementary halves); expressed in transfected cells
T2 sequence (Q13148 whole entry, the tested form may be a part): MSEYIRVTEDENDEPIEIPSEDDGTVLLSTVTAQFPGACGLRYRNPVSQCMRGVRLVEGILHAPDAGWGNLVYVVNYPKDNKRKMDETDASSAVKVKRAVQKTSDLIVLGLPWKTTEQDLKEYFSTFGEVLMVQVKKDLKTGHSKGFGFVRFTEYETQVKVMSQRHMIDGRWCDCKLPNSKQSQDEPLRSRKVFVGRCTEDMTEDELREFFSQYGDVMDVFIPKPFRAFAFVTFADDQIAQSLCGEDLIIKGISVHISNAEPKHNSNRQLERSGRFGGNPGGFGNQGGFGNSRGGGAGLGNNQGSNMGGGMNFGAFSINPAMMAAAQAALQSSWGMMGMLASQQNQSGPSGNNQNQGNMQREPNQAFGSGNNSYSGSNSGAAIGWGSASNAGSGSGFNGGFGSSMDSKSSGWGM
Protocol: (§5) To screen for new TDP-43 aggregation inhibitors, a TDP-43-BiFC cell model that facilitates observation of TDP-43 aggregate formation in living cells was used. Specifically, TDP-43-BiFC cells were dispensed into a 384-well plate, and the next day, the compounds prepared according to Examples 1 to 46 were treated at concentrations of 3 and 10 µM, respectively, together with Forskolin (treatment concentration 30 µM), which is a compound that induces TDP-43 aggregation by activating the phosphorylation enzyme PKA. After 48 hours, nuclei within cells were stained using Hoechst (treatment concentration 1 µg/mL), and BiFC fluorescence intensity was automatically quantified using Operetta (PerkinElmer) to count the stained nuclei in each well from the entire plate. The group treated only with Forskolin, which induces TDP-43 aggregation, was set as the reference point with 100% TDP-43 aggregation state, and the effect was confirmed by the formula "(BiFC fluorescence intensity by the compounds synthesized according to the Examples of the disclosure - fluorescence intensity of the untreated control group)/(fluorescence intensity of the control group treated only with Forskolin that induces TDP-43 aggregation - fluorescence intensity of the untreated control group) × 100". In addition, the degree of cytotoxicity induced by the newly synthesized compounds was also calculated using the formula "(number of stained nuclei in the compound-treated group/number of stained nuclei in the Forskolin-treated group) × 100", with the group treated only with Forskolin as the reference point at 100% viability. From the treatment results, substances that inhibit intracellular TDP-43 aggregation were identified through screening from a series of candidates based on the criteria of 80% or more TDP-43 aggregation inhibition and 60% cell viability at a compound treatment concentration of 3 µM.
(§6) Furthermore, to confirm the TDP-43 aggregation inhibitory effect according to the concentration of the compounds screened in Experimental Example 3, the screened compounds were treated to […] at concentrations of 0.003, 0.01, 0.03, 0.1, 0.3, 1, 3, and 10 µM, respectively, together with Forskolin (treatment concentration 30 µM), which is a TDP-43 aggregation-inducing substance. After 48 hours, cell images were examined to analyze the TDP-43 aggregation reaction and degree of cytotoxicity. The IC50 and toxicity of the compounds were analyzed by nonlinear regression analysis using Prism software (GraphPad). The calculated results for representative compounds are shown in Table 4 below: TDP-43 protein aggregation inhibitory effect and cell viability of novel compounds.

TDP-43 BiFC cells = assay: Cell viability (stained nuclei count) in TDP-43-BiFC cells; assay type: cell-based; details: Forskolin-only group = 100%
Protocol: as §5, §6

CYP2C19 = biological target: T3, CYP2C19 (Homo sapiens, UniProt P33261); assay: CYP isoenzyme activity inhibition in human liver microsomes, CYP2C19; assay type: in vitro ADME; details: 10 µM compound; human liver microsomes 0.25 mg/mL; relative to control without compound
T3 construct: human liver microsomes (0.25 mg/mL); from tissue; host or cells: human liver microsomes
T3 sequence (P33261 whole entry): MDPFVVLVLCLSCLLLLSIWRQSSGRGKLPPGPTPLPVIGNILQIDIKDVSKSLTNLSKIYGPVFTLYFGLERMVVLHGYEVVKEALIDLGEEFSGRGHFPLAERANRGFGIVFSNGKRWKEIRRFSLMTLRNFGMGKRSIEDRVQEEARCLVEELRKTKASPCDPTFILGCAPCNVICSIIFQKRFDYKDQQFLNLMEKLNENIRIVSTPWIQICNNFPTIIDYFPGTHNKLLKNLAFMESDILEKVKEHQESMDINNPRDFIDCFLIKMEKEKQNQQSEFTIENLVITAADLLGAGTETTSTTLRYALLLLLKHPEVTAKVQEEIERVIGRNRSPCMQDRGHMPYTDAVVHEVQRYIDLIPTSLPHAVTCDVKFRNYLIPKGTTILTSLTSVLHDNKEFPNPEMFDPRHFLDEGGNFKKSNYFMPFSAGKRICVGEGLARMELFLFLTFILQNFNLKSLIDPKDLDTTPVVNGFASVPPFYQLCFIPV
Protocol: (§7) The CYP isoenzyme activity inhibitory effect by the compounds prepared according to Examples 1 to 46 was confirmed. Specifically, human liver microsomes (0.25 mg/mL), 0.1 M phosphate buffer solution (pH 7.4), a substrate drug cocktail of five drug metabolizing enzymes (Phenacetin 50 µM, Diclofenac 10 µM, S-mephenytoin 100 µM, Dextromethorphan 5 µM, and Midazolam 2.5 µM), and the compounds were added at concentrations of 0 or 10 µM, respectively, and pre-incubated at 37°C for 5 minutes, and then NADPH generation system solution was added and incubated at 37°C for an additional 15 minutes. Thereafter, an acetonitrile solution containing an internal standard (Terfenadine) was added to terminate the reaction, and after centrifugation for 5 minutes (14,000 rpm, 4°C), the supernatant was injected into an LC-MS/MS system to simultaneously analyze the metabolites of the substrate drugs, thereby evaluating the drug metabolizing enzyme inhibitory activity.
(§8) The metabolites of each CYP isoenzyme marker drug generated through the reaction were analyzed using a Shimadzu Nexera XR system and TSQ vantage (Thermo). A Kinetex C18 (2.1 × 100 mm, 2.6 µm, particle size; Phenomenex, USA) was used as the HPLC column, and (A) distilled water containing 0.1% formic acid and (B) acetonitrile containing 0.1% formic acid were used as mobile phases, and a gradient program as shown in Table 6 below was applied.
(§9) The generated metabolites were quantified using MRM (Multiple Reaction Monitoring) quantitative mode, and Xcalibur (version 1.6.1) was used for data analysis. To show the CYP isoenzyme activity inhibitory effect of the novel compounds prepared according to the Examples of the disclosure, the % activity of CYP isoenzymes relative to the control group without compound addition is shown in Table 6 below. Additionally, to confirm the difference in effect according to substituents, Comparative Compounds 1 and 5, which are two compounds that share a similar parent nucleus structure with Compounds 1 to 46 of the disclosure while Cy is substituted with aromatic heteroaryl instead of saturated heterocyclyl, were selected as comparative compounds and their activities are shown together.

CYP1A2 = biological target: T4, CYP1A2 (Homo sapiens, UniProt P05177); assay: CYP isoenzyme activity inhibition in human liver microsomes, CYP1A2; assay type: in vitro ADME; details: 10 µM compound; human liver microsomes 0.25 mg/mL; relative to control without compound
T4 construct: human liver microsomes (0.25 mg/mL); from tissue; host or cells: human liver microsomes
T4 sequence (P05177 1-516): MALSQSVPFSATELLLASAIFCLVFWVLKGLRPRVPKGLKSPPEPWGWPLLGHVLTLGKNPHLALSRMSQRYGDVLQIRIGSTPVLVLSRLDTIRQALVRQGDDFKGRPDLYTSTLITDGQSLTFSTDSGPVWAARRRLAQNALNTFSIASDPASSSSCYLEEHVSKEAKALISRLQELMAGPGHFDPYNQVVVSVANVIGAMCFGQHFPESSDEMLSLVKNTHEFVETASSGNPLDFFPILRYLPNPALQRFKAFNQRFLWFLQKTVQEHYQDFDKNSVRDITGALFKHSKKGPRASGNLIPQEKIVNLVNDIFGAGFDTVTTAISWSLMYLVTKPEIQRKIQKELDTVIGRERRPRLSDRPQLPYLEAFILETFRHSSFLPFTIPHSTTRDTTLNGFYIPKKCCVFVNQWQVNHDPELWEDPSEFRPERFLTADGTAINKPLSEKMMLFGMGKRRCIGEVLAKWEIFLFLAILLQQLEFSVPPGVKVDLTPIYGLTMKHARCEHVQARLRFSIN
Protocol: as §7, §8, §9

CYP2D6 = biological target: T5, CYP2D6 (Homo sapiens, UniProt P10635); assay: CYP isoenzyme activity inhibition in human liver microsomes, CYP2D6; assay type: in vitro ADME; details: 10 µM compound; human liver microsomes 0.25 mg/mL; relative to control without compound
T5 construct: human liver microsomes (0.25 mg/mL); from tissue; host or cells: human liver microsomes
T5 sequence (P10635 whole entry): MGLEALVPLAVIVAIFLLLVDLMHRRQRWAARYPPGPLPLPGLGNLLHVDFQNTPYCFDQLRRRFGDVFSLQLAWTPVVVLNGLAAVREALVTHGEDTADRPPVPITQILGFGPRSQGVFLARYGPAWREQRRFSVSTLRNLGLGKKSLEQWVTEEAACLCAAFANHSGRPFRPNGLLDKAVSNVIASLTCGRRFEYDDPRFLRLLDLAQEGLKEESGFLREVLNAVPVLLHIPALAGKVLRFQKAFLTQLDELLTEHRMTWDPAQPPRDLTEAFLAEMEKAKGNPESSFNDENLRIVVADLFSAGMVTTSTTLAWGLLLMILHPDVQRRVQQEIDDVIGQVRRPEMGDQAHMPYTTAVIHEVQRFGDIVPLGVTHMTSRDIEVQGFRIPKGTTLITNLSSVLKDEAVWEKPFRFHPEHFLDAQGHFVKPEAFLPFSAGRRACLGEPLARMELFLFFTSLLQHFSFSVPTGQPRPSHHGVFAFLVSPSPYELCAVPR
Protocol: as §7, §8, §9

CYP3A4 = biological target: T6, CYP3A4 (Homo sapiens, UniProt P08684); assay: CYP isoenzyme activity inhibition in human liver microsomes, CYP3A4; assay type: in vitro ADME; details: 10 µM compound; human liver microsomes 0.25 mg/mL; relative to control without compound
T6 construct: human liver microsomes (0.25 mg/mL); from tissue; host or cells: human liver microsomes
T6 sequence (P08684 whole entry): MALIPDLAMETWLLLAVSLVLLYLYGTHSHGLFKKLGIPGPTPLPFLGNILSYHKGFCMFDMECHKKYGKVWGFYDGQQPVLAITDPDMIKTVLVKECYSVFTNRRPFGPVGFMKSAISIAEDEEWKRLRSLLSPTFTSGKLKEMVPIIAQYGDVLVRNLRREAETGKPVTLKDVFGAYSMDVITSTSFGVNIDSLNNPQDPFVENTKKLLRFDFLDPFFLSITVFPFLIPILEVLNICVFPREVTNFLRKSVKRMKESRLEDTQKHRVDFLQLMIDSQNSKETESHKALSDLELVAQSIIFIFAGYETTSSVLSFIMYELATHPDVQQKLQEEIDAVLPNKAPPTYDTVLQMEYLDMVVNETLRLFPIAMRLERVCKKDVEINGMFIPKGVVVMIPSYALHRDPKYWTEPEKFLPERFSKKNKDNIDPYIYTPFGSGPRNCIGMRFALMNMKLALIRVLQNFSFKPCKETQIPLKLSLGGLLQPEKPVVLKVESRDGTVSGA
Protocol: as §7, §8, §9

CYP2C9 = biological target: T7, CYP2C9 (Homo sapiens, UniProt P11712); assay: CYP isoenzyme activity inhibition in human liver microsomes, CYP2C9; assay type: in vitro ADME; details: 10 µM compound; human liver microsomes 0.25 mg/mL; relative to control without compound
T7 construct: human liver microsomes (0.25 mg/mL); from tissue; host or cells: human liver microsomes
T7 sequence (P11712 whole entry): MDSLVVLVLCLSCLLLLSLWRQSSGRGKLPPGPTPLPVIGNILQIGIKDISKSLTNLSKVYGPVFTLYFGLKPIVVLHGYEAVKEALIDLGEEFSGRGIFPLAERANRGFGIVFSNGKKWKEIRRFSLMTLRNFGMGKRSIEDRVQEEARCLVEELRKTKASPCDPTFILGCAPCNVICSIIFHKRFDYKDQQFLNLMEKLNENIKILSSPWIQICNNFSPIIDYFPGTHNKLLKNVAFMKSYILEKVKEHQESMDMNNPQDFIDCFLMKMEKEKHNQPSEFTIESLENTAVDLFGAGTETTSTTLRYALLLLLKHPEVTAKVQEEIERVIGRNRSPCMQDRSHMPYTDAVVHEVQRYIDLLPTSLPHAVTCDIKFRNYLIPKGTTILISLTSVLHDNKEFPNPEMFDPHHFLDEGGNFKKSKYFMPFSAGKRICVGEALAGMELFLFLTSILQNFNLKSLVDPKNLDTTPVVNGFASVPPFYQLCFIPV
Protocol: as §7, §8, §9

Cc1nc2ccc(NN=C(C#N)C#N)cc2s1 [Comparative compound 1, N-(2-methylbenzo[d]thiazol-6-yl)carbonohydrazonoyl dicyanide, reference compound]
Human microsomes (% remaining) [1]: 37.0 % remaining
Rat microsomes (% remaining) [2]: 1.2 % remaining
Cell viability (% @10µM) (Tau-BiFC cells): 100%
Mouse microsomes (% remaining) [3]: 1.2 % remaining
IC50 (Tau): 500 nM
inhibition at 3 µM (TDP-43 protein): 72.9%
Cell viability (%) (@ 3 uM) (TDP-43 BiFC cells): 79.0%

N#CC(C#N)=NNc1ccc2nc(N3CCOCC3)[nH]c2c1 [Compound 7, (2-morpholino-1H-benzo[d]imidazol-6-yl)carbonohydrazonoyl dicyanide]
Cell viability (% @10µM) (Tau-BiFC cells): 100%
CYP2C19 (% activity) (CYP2C19): 95.1 % activity
CYP1A2 (% activity) (CYP1A2): 57.6 % activity
CYP2D6 (% activity) (CYP2D6): > 100 % activity
IC50 (Tau): 64 nM
CYP3A4 (% activity) (CYP3A4): 83.1 % activity
CYP2C9 (% activity) (CYP2C9): 67.8 % activity

Cc1ccc(-c2nc3ccc(NN=C(C#N)C#N)cc3s2)cn1 [Comparative compound 6, N-(2-(6-methylpyridin-3-yl)benzo[d]thiazol-6-yl) carbonohydrazonoyl dicyanide, reference compound]
Human microsomes (% remaining) [1]: 84.7 % remaining
Rat microsomes (% remaining) [2]: 83.9 % remaining
CYP2C19 (% activity) (CYP2C19): 81.2 % activity
Mouse microsomes (% remaining) [3]: >100 % remaining
CYP1A2 (% activity) (CYP1A2): 80.2 % activity
CYP2D6 (% activity) (CYP2D6): 91.8 % activity
CYP3A4 (% activity) (CYP3A4): 81.7 % activity
inhibition at 3 µM (TDP-43 protein): 69.5%
CYP2C9 (% activity) (CYP2C9): 32.0 % activity
Cell viability (%) (@ 3 uM) (TDP-43 BiFC cells): 60.8%
